Experiment: xn = mol fraction of the nth substance listed
Settings: Liquid, Vibrating tube method

CCCCn1cc[n+](C)c1.F[B-](F)(F)F [1-butyl-3-methylimidazolium tetrafluoroborate] + CCO
Settings	mass density [kg/m3]
348.15 K, 20740 kPa, x1 = 0.9152	1174.39
348.15 K, 20870 kPa, x1 = 1	1185.63
348.15 K, 21630 kPa, x1 = 0.3147	1023.15
348.15 K, 25140 kPa, x1 = 0.9152	1176.67
348.15 K, 25380 kPa, x1 = 0.0701	858.25
348.15 K, 25410 kPa, x1 = 0.7452	1149.62
348.15 K, 25430 kPa, x1 = 0.5384	1104.11
348.15 K, 25850 kPa, x1 = 1	1188.16
348.15 K, 26120 kPa, x1 = 0.3147	1025.95
348.15 K, 29980 kPa, x1 = 0.9152	1179.1
348.15 K, 30070 kPa, x1 = 0.7452	1152.07
348.15 K, 30110 kPa, x1 = 1	1190.19
348.15 K, 30220 kPa, x1 = 0.0701	861.8
348.15 K, 30550 kPa, x1 = 0.3147	1028.55
348.15 K, 30670 kPa, x1 = 0.5384	1107
348.15 K, 35070 kPa, x1 = 0.9152	1181.59
348.15 K, 35110 kPa, x1 = 1	1192.88
348.15 K, 35140 kPa, x1 = 0.7452	1154.63
348.15 K, 35170 kPa, x1 = 0.0701	865.16
348.15 K, 35620 kPa, x1 = 0.5384	1109.59
348.15 K, 35630 kPa, x1 = 0.3147	1031.33
348.15 K, 39560 kPa, x1 = 0.5384	1111.54
348.15 K, 39610 kPa, x1 = 1	1194.77
348.15 K, 39740 kPa, x1 = 0.9152	1183.8
348.15 K, 39940 kPa, x1 = 0.7452	1156.96
348.15 K, 40010 kPa, x1 = 0.3147	1033.56
348.15 K, 40030 kPa, x1 = 0.0701	868.18
373.15 K, 470 kPa, x1 = 1	1157.24
373.15 K, 510 kPa, x1 = 0.0701	812.28
373.15 K, 520 kPa, x1 = 0.7452	1117.1
373.15 K, 750 kPa, x1 = 0.5384	1069.65
373.15 K, 780 kPa, x1 = 0.9152	1145.53
373.15 K, 810 kPa, x1 = 0.3147	987.83
373.15 K, 5060 kPa, x1 = 0.5384	1072.77
373.15 K, 5090 kPa, x1 = 0.7452	1120.2
373.15 K, 5140 kPa, x1 = 0.9152	1148.26
373.15 K, 5350 kPa, x1 = 1	1160.25
373.15 K, 5790 kPa, x1 = 0.0701	818.18
373.15 K, 5820 kPa, x1 = 0.3147	992.08
373.15 K, 10070 kPa, x1 = 0.5384	1076.3
373.15 K, 10080 kPa, x1 = 1	1163.09
373.15 K, 10570 kPa, x1 = 0.9152	1151.58
373.15 K, 10610 kPa, x1 = 0.7452	1123.82
373.15 K, 10950 kPa, x1 = 0.3147	996.25
373.15 K, 11040 kPa, x1 = 0.0701	823.77
373.15 K, 15080 kPa, x1 = 0.9152	1154.27
373.15 K, 15130 kPa, x1 = 0.0701	827.92
373.15 K, 15340 kPa, x1 = 0.5384	1079.9
373.15 K, 15710 kPa, x1 = 1	1166.39
373.15 K, 15730 kPa, x1 = 0.3147	999.95
373.15 K, 15840 kPa, x1 = 0.7452	1127.11
373.15 K, 19860 kPa, x1 = 0.3147	1003.02
373.15 K, 20090 kPa, x1 = 0.7452	1129.7
373.15 K, 20540 kPa, x1 = 0.9152	1157.45
373.15 K, 20610 kPa, x1 = 0.5384	1083.37
373.15 K, 20970 kPa, x1 = 1	1169.38
373.15 K, 21220 kPa, x1 = 0.0701	833.79
373.15 K, 24670 kPa, x1 = 0.9152	1159.79
373.15 K, 25130 kPa, x1 = 0.0701	837.37
373.15 K, 25460 kPa, x1 = 0.7452	1132.84
373.15 K, 25820 kPa, x1 = 1	1172.07
373.15 K, 25930 kPa, x1 = 0.5384	1086.76
373.15 K, 25990 kPa, x1 = 0.3147	1007.35
373.15 K, 29760 kPa, x1 = 0.9152	1162.61
373.15 K, 30010 kPa, x1 = 0.5384	1089.27
373.15 K, 30070 kPa, x1 = 0.7452	1135.43
373.15 K, 30120 kPa, x1 = 1	1174.39
373.15 K, 30260 kPa, x1 = 0.0701	841.81
373.15 K, 30670 kPa, x1 = 0.3147	1010.47
373.15 K, 35030 kPa, x1 = 0.5384	1092.26
373.15 K, 35180 kPa, x1 = 0.7452	1138.19
373.15 K, 35220 kPa, x1 = 0.3147	1013.34
373.15 K, 35520 kPa, x1 = 0.0701	846.1
373.15 K, 35530 kPa, x1 = 1	1177.22
373.15 K, 36740 kPa, x1 = 0.9152	1166.35
373.15 K, 39820 kPa, x1 = 0.3147	1016.1
373.15 K, 39820 kPa, x1 = 1	1179.41
373.15 K, 39840 kPa, x1 = 0.0701	849.4
373.15 K, 39870 kPa, x1 = 0.9152	1167.99
373.15 K, 39920 kPa, x1 = 0.7452	1140.63
373.15 K, 39940 kPa, x1 = 0.5384	1095.08
398.15 K, 860 kPa, x1 = 0.9152	1128.45
398.15 K, 870 kPa, x1 = 1	1141.05
398.15 K, 920 kPa, x1 = 0.5384	1049.06
398.15 K, 940 kPa, x1 = 0.7452	1098.62
398.15 K, 960 kPa, x1 = 0.3147	966.26
398.15 K, 1010 kPa, x1 = 0.0701	788.85
398.15 K, 5060 kPa, x1 = 0.5384	1052.44
398.15 K, 5120 kPa, x1 = 0.7452	1101.74
398.15 K, 5750 kPa, x1 = 0.0701	795.42
398.15 K, 5840 kPa, x1 = 0.9152	1131.83
398.15 K, 6350 kPa, x1 = 0.3147	971.33
398.15 K, 6670 kPa, x1 = 1	1144.53
398.15 K, 9630 kPa, x1 = 0.9152	1134.36
398.15 K, 10070 kPa, x1 = 0.7452	1105.35
398.15 K, 10150 kPa, x1 = 0.0701	801.14
398.15 K, 10420 kPa, x1 = 0.5384	1056.68
398.15 K, 10490 kPa, x1 = 1	1147.07
398.15 K, 10930 kPa, x1 = 0.3147	975.46
398.15 K, 15030 kPa, x1 = 0.5384	1060.22
398.15 K, 15080 kPa, x1 = 0.7452	1108.88
398.15 K, 15110 kPa, x1 = 0.0701	807.16
398.15 K, 15620 kPa, x1 = 0.3147	979.51
398.15 K, 15730 kPa, x1 = 1	1150.32
398.15 K, 16470 kPa, x1 = 0.9152	1138.81
398.15 K, 19970 kPa, x1 = 0.5384	1063.89
398.15 K, 20040 kPa, x1 = 0.9152	1141.07
398.15 K, 20150 kPa, x1 = 0.3147	983.26
398.15 K, 20640 kPa, x1 = 0.7452	1112.68
398.15 K, 20740 kPa, x1 = 0.0701	813.42
398.15 K, 20980 kPa, x1 = 1	1153.78
398.15 K, 24980 kPa, x1 = 0.5384	1067.49
398.15 K, 25120 kPa, x1 = 0.9152	1144.22
398.15 K, 25130 kPa, x1 = 0.0701	817.89
398.15 K, 25140 kPa, x1 = 1	1156.3
398.15 K, 25170 kPa, x1 = 0.3147	987.21
398.15 K, 25370 kPa, x1 = 0.7452	1115.8
398.15 K, 30030 kPa, x1 = 0.5384	1070.98
398.15 K, 30280 kPa, x1 = 0.7452	1118.94
398.15 K, 30410 kPa, x1 = 0.3147	991.12
398.15 K, 30450 kPa, x1 = 0.9152	1147.45
398.15 K, 30850 kPa, x1 = 0.0701	823.16
398.15 K, 30890 kPa, x1 = 1	1159.52
398.15 K, 35070 kPa, x1 = 0.5384	1074.35
398.15 K, 35140 kPa, x1 = 0.7452	1121.93
398.15 K, 35160 kPa, x1 = 0.3147	994.46
398.15 K, 35740 kPa, x1 = 0.9152	1150.56
398.15 K, 35810 kPa, x1 = 1	1162.4
398.15 K, 35860 kPa, x1 = 0.0701	827.28
398.15 K, 39560 kPa, x1 = 1	1164.38
398.15 K, 39850 kPa, x1 = 0.3147	997.59
398.15 K, 39860 kPa, x1 = 0.9152	1152.93
398.15 K, 39920 kPa, x1 = 0.7452	1124.78
398.15 K, 39940 kPa, x1 = 0.5384	1077.48
398.15 K, 39990 kPa, x1 = 0.0701	830.32

— the NIST ThermoML archive (doi:10.1007/s10765-008-0410-4)
